Reference: publication PMC5935597 (Bioorganic & medicinal chemistry, 2018)
In brackets after ≈: the same amount, converted by molar mass. Like-named read-outs stand apart in the source and are kept apart here.

Columns and labels:
H. capsulatum [1] = settings: read-out: H. capsulatum IC50; cited from earlier work
[2] = tested on: C. neoformans (H99 strain); settings: read-out: C. neoformans (H99 strain) IC50; cited from earlier work
Candida albicans = settings: cited from earlier work
Aspergillus fumigatus = settings: cited from earlier work
[3] = tested on: C. neoformans (H99 strain); experiment: microbe, parasite or virus in culture; type: cell-based, Cryptococcus neoformans
H. capsulatum [4] = type: cell-based, Histoplasma capsulatum; settings: for times more active than 41F5 against H. capsulatum: relative to 41F5; for activity against H. capsulatum evaluated comparatively at pH 5 and pH 7: pH 5 versus pH 7 (SM-S.2)
Blastomyces dermatitidis = settings: cited from earlier work

O=C(CCC1CCCCC1)Nc1ncc(Cc2cccc3ccccc23)s1 [A]
IC50 (H. capsulatum [1]): 400 nM
IC50 [2]: > 10000 nM

Cc1ccc(Oc2ccccc2-c2csc(N=C3NCCCN3)n2)c(C)c1 [Abafungin]
activity against Candida albicans (Candida albicans): active
activity against Aspergillus fumigatus (Aspergillus fumigatus): active

O=C(Nc1ncc(Cc2ccccc2)s1)C1CCCCC1 [B]
IC50 (H. capsulatum [1]): 1600 nM

O=C(CCC1CCCCC1)Nc1ncc(Cc2ccccc2)s1 [C]
IC50 (H. capsulatum [1]): 700 nM
IC50 [2]: > 10000 nM

O=C(Nc1ncc(Cc2cccc3ccsc23)s1)C1CCCCC1 [Compound 17b]
times more active than 41F5 against C. neoformans [3]: ~ 2 times
times more active than 41F5 against H. capsulatum (H. capsulatum [4]): ~ 2 times

O=C(CCC1CCCCC1)Nc1ncc(Cc2cccc3nsnc23)s1 [Compound 20a]
activity against C. neoformans evaluated comparatively at pH 5 and pH 7 [3]: No significant differences
activity against H. capsulatum evaluated comparatively at pH 5 and pH 7 (H. capsulatum [4]): No significant differences

O=C(CCC1CCCCC1)Nc1ncc(Cc2cccc3sccc23)s1 [Compound 22a]
times more active than 41F5 against H. capsulatum (H. capsulatum [4]): ~ 2 times

O=C(Nc1ncc(Cc2cccc3sccc23)s1)C1CCCCC1 [Compound 22b]
times more active than 41F5 against C. neoformans [3]: ~ 2 times
IC50 ([3]; Cryptococcus neoformans, read-out: C. neoformans (H99 strain) IC50 [±SD]): 370 nM
MIC ([3]; Cryptococcus neoformans, read-out: C. neoformans (H99 strain) MIC): 1.25 µM (≈ 0.446 µg/mL)
times more active than 41F5 against H. capsulatum (H. capsulatum [4]): ~ 2 times

O=C(CCC1CCCCC1)Nc1ncc(Cc2csc3ccccc23)s1 [Compound 23a]
times more active than 41F5 against H. capsulatum (H. capsulatum [4]): ~ 2 times

O=C(Nc1ncc(Cc2cccc3c2CCC3)s1)C1CCCCC1 [Compound 26b]
times more active than 41F5 against C. neoformans [3]: ~ 2 times
times more active than 41F5 against H. capsulatum (H. capsulatum [4]): ~ 2 times

O=C(CCC1CCCCC1)Nc1ncc(Cc2ccnc3ccccc23)s1 [Compound 28a]
activity against C. neoformans evaluated comparatively at pH 5 and pH 7 [3]: No significant differences
activity against H. capsulatum evaluated comparatively at pH 5 and pH 7 (H. capsulatum [4]): No significant differences

O=C(CCC1CCCCC1)Nc1ncc(Cc2ccccn2)s1 [Compound 29a]
activity against C. neoformans evaluated comparatively at pH 5 and pH 7 [3]: No significant differences
activity against H. capsulatum evaluated comparatively at pH 5 and pH 7 (H. capsulatum [4]): No significant differences

O=C(Nc1ncc(Cc2cccnc2)s1)C1CCCCC1 [Compound 31]
activity against C. neoformans evaluated comparatively at pH 5 and pH 7 [3]: No significant differences
activity against H. capsulatum evaluated comparatively at pH 5 and pH 7 (H. capsulatum [4]): No significant differences

O=C(CCC1CCCCC1)Nc1ncc(Cc2ccncc2)s1 [Compound 32a]
activity against C. neoformans evaluated comparatively at pH 5 and pH 7 [3]: No significant differences
activity against H. capsulatum evaluated comparatively at pH 5 and pH 7 (H. capsulatum [4]): No significant differences

O=C(c1cnc(NC(=O)C2CCCCC2)s1)c1cccc2ccccc12 [Compound 36b]
times more active than 41F5 against H. capsulatum (H. capsulatum [4]): ~ 2 times

O=C(Nc1ncc(Cc2cccc3ccccc23)s1)C1CCCCC1 [Compound 41F5, N-[5-(1-naphthalenylmethyl)-2-thiazolyl]cyclohexanecarboxamide]
IC50 (H. capsulatum [1]): 400 nM
activity against Candida albicans (Candida albicans): inactive
activity against Blastomyces dermatitidis (Blastomyces dermatitidis): inactive
IC50 [2]: 400 nM
activity against Aspergillus fumigatus (Aspergillus fumigatus): inactive
